Experimental data taken from the supplement of paper PMC13386468.

How the values were obtained:
Experiment in all cases: IC50 for competition of protein binding to Kinobeads
Settings in all cases: assay detail: Kinobeads competition in P. falciparum blood-stage lysate
UniProt O97249 = biological target: UniProt O97249
UniProt C0H564 = biological target: UniProt C0H564
UniProt Q8I291 = biological target: UniProt Q8I291
UniProt Q76NM3 = biological target: UniProt Q76NM3
UniProt Q8IE09 = biological target: UniProt Q8IE09
UniProt Q8I4U5 = biological target: UniProt Q8I4U5
UniProt Q8IBN1 = biological target: UniProt Q8IBN1
UniProt Q8IKH3 = biological target: UniProt Q8IKH3
UniProt Q8IJC7 = biological target: UniProt Q8IJC7
UniProt Q8ILT0 = biological target: UniProt Q8ILT0
UniProt Q8IJI0 = biological target: UniProt Q8IJI0
UniProt Q8I3Q6 = biological target: UniProt Q8I3Q6
UniProt P61074 = biological target: UniProt P61074
Chain of UniProt P61074 (P61074 whole entry): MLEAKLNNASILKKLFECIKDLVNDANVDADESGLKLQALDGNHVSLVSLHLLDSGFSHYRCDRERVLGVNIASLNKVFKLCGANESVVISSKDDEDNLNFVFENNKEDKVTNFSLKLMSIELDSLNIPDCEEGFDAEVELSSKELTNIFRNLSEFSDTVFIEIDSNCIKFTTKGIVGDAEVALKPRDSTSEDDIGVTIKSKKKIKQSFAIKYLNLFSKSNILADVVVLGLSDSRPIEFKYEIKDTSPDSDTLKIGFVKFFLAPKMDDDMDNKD

UniProt Q8IBA0 = biological target: UniProt Q8IBA0
UniProt Q8I2G2 = biological target: UniProt Q8I2G2
UniProt Q8ILK2 = biological target: UniProt Q8ILK2
UniProt Q8IHR6 = biological target: UniProt Q8IHR6
UniProt Q8I1S0 = biological target: UniProt Q8I1S0
UniProt Q8I272 = biological target: UniProt Q8I272
UniProt Q8IDR5 = biological target: UniProt Q8IDR5
UniProt Q8IAU1 = biological target: UniProt Q8IAU1
UniProt Q8ILQ3 = biological target: UniProt Q8ILQ3
UniProt Q8IDI5 = biological target: UniProt Q8IDI5
UniProt O77328 = biological target: UniProt O77328
UniProt Q8IC05 = biological target: UniProt Q8IC05
UniProt Q8ILW6 = biological target: UniProt Q8ILW6
Chain of UniProt Q8ILW6 (Q8ILW6 whole entry): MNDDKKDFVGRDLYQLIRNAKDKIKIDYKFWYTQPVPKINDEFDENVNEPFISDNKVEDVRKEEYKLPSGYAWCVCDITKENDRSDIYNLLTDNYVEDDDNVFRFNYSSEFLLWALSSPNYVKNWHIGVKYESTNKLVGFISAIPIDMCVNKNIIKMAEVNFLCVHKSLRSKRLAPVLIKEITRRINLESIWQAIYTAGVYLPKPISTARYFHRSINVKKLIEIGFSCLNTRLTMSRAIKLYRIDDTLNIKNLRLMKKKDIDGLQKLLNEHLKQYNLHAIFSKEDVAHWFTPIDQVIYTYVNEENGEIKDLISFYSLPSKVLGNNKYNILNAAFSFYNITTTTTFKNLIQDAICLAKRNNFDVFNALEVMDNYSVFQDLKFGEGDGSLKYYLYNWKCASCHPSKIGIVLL

UniProt Q8IAW7 = biological target: UniProt Q8IAW7
UniProt C6KSR5 = biological target: UniProt C6KSR5
UniProt Q8I305 = biological target: UniProt Q8I305
UniProt Q8IJA0 = biological target: UniProt Q8IJA0
UniProt Q8II13 = biological target: UniProt Q8II13
UniProt C0H5C2 = biological target: UniProt C0H5C2
UniProt C6KST5 = biological target: UniProt C6KST5
UniProt C6KSP9 = biological target: UniProt C6KSP9
UniProt Q8IJJ0 = biological target: UniProt Q8IJJ0
UniProt O96236 = biological target: UniProt O96236
UniProt Q8I5E2 = biological target: UniProt Q8I5E2
UniProt Q8IKU1 = biological target: UniProt Q8IKU1

Measured: IC50
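Note: native unpurified kinases from lysate captured on beads bearing immobilized kinase inhibitors, with bead-bound kinases quantified by mass spectrometry across compound doses.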

Chain of UniProt O97249 (O97249 whole entry): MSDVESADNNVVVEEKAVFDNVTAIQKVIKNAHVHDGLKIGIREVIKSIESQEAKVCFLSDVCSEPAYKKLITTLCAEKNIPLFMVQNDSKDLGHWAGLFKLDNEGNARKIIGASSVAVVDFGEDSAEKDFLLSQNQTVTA

O=c1[nH]c2ccc(Cl)cc2c(NC2CN3CCC2CC3)c1-c1nc2ccccc2[nH]1 (stereo not drawn) [CHIR-124]
> 20 µM: UniProt O97249 | UniProt C0H564 | UniProt Q8I291 | UniProt Q76NM3 | UniProt Q8IE09 | UniProt Q8I4U5 | UniProt Q8IBN1 | UniProt Q8IKH3 | UniProt Q8IJC7 | UniProt Q8ILT0 | UniProt Q8IJI0 | UniProt Q8I3Q6 | UniProt P61074 | UniProt Q8IBA0 | UniProt Q8I2G2 | UniProt Q8ILK2 | UniProt Q8IHR6 | UniProt Q8I1S0 | UniProt Q8I272 | UniProt Q8IDR5 | UniProt Q8IAU1 | UniProt Q8ILQ3 | UniProt Q8IDI5 | UniProt O77328 | UniProt Q8IC05 | UniProt Q8ILW6 | UniProt Q8IAW7 | UniProt C6KSR5 | UniProt Q8I305 | UniProt Q8IJA0 | UniProt Q8II13 | UniProt C0H5C2 | UniProt C6KST5 | UniProt C6KSP9 | UniProt Q8IJJ0 | UniProt O96236 | UniProt Q8I5E2 | UniProt Q8IKU1
